From patent US20040009210A1, “Wound management products incorporating cationic compounds” (Kimberly-Clark Worldwide, Inc., priority 2002, published 2004) come the findings set out here.

This data set in a line: Effective charge density of the cationic compound (measured). In kind it is physicochemical.

Regarding `CCCCCCCC/C=C\CCCCCCCC(=O)NCC[N+]1=C(CCCCCCC/C=C\CCCCCCCC)N(C)CC1.COS(=O)(=O)[O-]` [cationic softener, 1-methyl-2-Noroleyl-3-oleyl amidoethyl imidazolinium methosulfate], the “effective charge density (measured)” value is “about 1300 microequivalents/gram”.
